Where two headings read alike, the source gives them in different places.
Legend:
[1] = L-menthol given a strength of 100; cited from earlier work
[2] = Sensorial assessment of intensity and duration of the cooling sensation of freshness of toothpaste; format: in vivo; conditions: for intensity of coolness perceived: scale of 0 to 10, toothpaste with 1.2 wt. % flavoring composition of Example 1.2 containing 0.5 wt. % cooling agent; for duration of the cooling sensation of freshness: teeth cleaning compound / toothpaste, in words
Protocol: The proportion of menthane carboxylic acid-N-(4-methoxyphenyl)-amide (WS-12) in the 1st preparation of Example 1.2 was replaced by menthane-3-carboxylic acid-N-ethyl amide (WS-3).
The flavoring agent composition obtained was likewise incorporated into a standard toothpaste mass with a silicic acid base in a concentration of 1.2 wt. %, in relation to the overall weight of the resultant toothpaste.
(§1) The toothpaste prepared in this way was tested by a panel of sensorially trained experts under usage conditions and compared with the toothpaste containing menthane carboxylic acid-N-(4-methoxyphenyl)-amide (WS-12) according to the 1st formulation of Example 1.2 in respect of the bitter perception and the duration of the cooling sensation of freshness.
The abscissa of FIG. 1 gives the time in minutes elapsing since cleaning of the teeth with the respective toothpaste.
The intensity of coolness perceived was rated on a scale of 0 to 10, with a value of “0” corresponding to the lowest or no intensity of coolness perceived and a value of “[…]” corresponding to the highest intensity of coolness perceived.

[3] = Sensorial assessment of the bitter-sharp note of menthol in toothpaste by a panel of trained experts; format: in vivo; conditions: for bitter-sharp note of the menthol / bitter perception: flavoring agent composition at 1.2 wt. % in toothpaste, usage conditions, expert panel
Protocol: The flavoring agent compositions obtained in this way were in each case incorporated into a respective standard toothpaste mass with a silicic acid basis in a concentration of 1.2 wt. %, in relation to the overall weight of the resulting toothpaste. The toothpastes were tested by a panel of sensorially trained experts under usage conditions. […] Without the use of anethole in the 2nd formulation the bitter-sharp note clearly emerged and the taste result was perceived overall to be unacceptable.
The flavoring agent compositions obtained in this way were in each case incorporated into a respective standard toothpaste mass with a silicic acid basis in a concentration of 1.2 wt. %, in relation to the overall weight of the resulting toothpaste. The toothpastes were tested by a panel of sensorially trained experts under usage conditions.
as §1
The flavoring agent composition obtained in this way was incorporated into a standard toothpaste mass with a silicic acid base in a concentration of 1.2 wt. %, in relation to the overall weight of the resulting toothpaste. The toothpaste was tested by a panel of sensorially trained experts under usage conditions. […] Since through the use of menthane carboxylic acid-N-(4-methoxyphenyl)-amide (WS-12) in combination with the further flavoring agents with a log-Kow value in the range of 1.5-5 (I-menthyl acetate, 1,8-cineole, cinnamaldehyde, and abovementioned corresponding proportions of peppermint oils) a strong reduction in bitterness (of the menthol) was achieved, it was advantageously possible to dispense with the use of anethole to reduce the bitterness. Apart from a pleasant, distinctly fresh, long-lasting taste impression, the toothpaste was also able to impart a distinct, sweet cinnamon note as a result of the proportion of cinnamaldehyde.
The flavoring agent compositions according to Example 4.1 (for a teeth cleaning compound for comparative purposes) and Example 4.2 (for a teeth cleaning compound according to the invention) were in each case incorporated with a concentration of 1.2 wt. %, in relation to the overall weight of the resulting toothpaste into a respective toothpaste mass, containing a proportion of 65 wt. % sodium bicarbonate. […]

[4] = cited from earlier work
[5] = Solubility of WS-12; format: physicochemical; conditions: in words
From the text: In order to bring about the masking of the menthol to a sufficient extent, WS-12 must be dissolved in the flavoring agent composition of the teeth cleaning compound in a sufficient quantity. Our own preliminary investigations have shown that in certain conventional flavoring agent compositions the solubility of the WS-12 is so low that only an insufficient masking (reduction or decrease) in the negative taste impressions of the menthol can be achieved.

[6] = molecular target: cold receptor TRPM8 (Homo sapiens, UniProt Q7Z2W7); conditions: cited from earlier work
[7] = on the philtrum fold (upper lip); cited from earlier work

Sequence of cold receptor TRPM8 (Q7Z2W7 whole entry): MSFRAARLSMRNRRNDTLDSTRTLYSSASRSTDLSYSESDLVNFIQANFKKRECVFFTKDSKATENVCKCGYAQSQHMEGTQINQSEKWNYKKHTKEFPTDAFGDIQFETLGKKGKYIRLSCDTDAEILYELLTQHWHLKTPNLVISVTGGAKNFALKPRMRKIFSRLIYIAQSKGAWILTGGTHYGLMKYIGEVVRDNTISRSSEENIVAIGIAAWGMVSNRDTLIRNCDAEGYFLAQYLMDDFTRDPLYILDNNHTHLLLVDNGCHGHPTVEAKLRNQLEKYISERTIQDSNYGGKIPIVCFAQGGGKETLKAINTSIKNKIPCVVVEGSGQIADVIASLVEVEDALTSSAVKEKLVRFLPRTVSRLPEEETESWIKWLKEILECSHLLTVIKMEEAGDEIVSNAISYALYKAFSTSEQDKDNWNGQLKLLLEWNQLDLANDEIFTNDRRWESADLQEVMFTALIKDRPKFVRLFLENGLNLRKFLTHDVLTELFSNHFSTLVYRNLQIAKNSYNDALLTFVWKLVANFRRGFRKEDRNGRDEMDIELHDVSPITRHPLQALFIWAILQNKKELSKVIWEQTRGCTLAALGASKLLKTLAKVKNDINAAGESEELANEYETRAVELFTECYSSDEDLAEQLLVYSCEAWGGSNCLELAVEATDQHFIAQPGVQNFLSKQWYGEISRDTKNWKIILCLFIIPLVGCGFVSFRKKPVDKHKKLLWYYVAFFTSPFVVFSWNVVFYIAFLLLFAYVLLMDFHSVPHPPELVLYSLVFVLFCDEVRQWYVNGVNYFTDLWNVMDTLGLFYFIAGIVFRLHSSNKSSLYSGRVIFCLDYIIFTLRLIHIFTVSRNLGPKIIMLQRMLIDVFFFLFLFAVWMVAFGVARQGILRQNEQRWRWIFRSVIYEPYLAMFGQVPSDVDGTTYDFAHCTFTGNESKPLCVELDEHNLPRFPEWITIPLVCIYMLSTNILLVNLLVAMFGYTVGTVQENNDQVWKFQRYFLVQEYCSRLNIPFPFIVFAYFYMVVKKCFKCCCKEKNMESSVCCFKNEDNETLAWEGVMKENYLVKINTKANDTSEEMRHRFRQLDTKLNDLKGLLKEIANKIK

SMILES	relative cooling strength compared with L-menthol [1]	intensity of coolness perceived ([2]; after 35 minutes)	duration of the cooling sensation of freshness [2]	bitter-sharp note of the menthol / bitter perception [3]	other results
CC(C)[C@@H]1CC[C@@H](C)C[C@H]1O [L-menthol]	100				
CCNC(=O)C1CC(C)CCC1C(C)C [WS-3, L-menthane carboxylic acid-N-ethyl amide]	150	0	only for a relatively short time	hardly reduced	reduction or masking of the bitterness or sharpness caused by menthol ([3]; addition to a conventional teeth cleaning compound containing menthol): did not lead to a significant reduction
CCOC(=O)CNC(=O)C1CC(C)CCC1C(C)C [WS-5, N^α-(L-menthane carbonyl)-glycine ethyl ester]	400				
COc1ccc(NC(=O)C2CC(C)CCC2C(C)C)cc1 (stereo not shown) [WS-12, menthane carboxylic acid-N-(4-methoxyphenyl)-amide]	150	3	comparatively long-lasting	significantly reduced	duration of cooling effect on the upper lip ([4]; remaining on the upper lip): up to half an hour; cooling effect compared with WS-5 ([4]; upper lip): lower than WS-5; solubility [5]: relatively not readily soluble; effect on the TRPM8 cold receptor [6]: stronger effect than WS-5; effect on the TRPM8 cold receptor ([6]; listed as menthane carboxylic acid-N-(4-methoxyphenyl)-amide): one of the strongest cooling substances; intensity of coolness perceived ([2]; after 60 minutes): ~1.5; cooling duration [7]: under one hour
CC=Cc1ccc(OC)cc1 [anethole]				neutralized	

Source: patent US9446267B2, “Products comprising a flavoring agent composition” (SYMRISE AG, priority 2009, dated 2016)
